Source: US20090062304A1, “Benzimidazole derivatives and their use for modulating the gaba-alpha receptor complex” (priority 2005, published 2009)

Assays:
[1] = molecular target: benzodiazepine modulatory unit of the GABAA receptor complex; test: In vitro inhibition of 3H-flunitrazepam (3H-FNM) binding; conditions: inhibition of specific 3H-FNM (1 nM) binding, rat cerebral cortex membranes, 40 min at 2° C.
Protocol: In Vitro Inhibition of ^3H-flunitrazepam (^3H-FNM) Binding
The GABA recognition site and the benzodiazepine modulatory unit can selectively be labelled with ^3H-flunitrazepam.
Preparations are performed at 0-4° C. unless otherwise indicated. Cerebral cortex from male Wistar rats (150-200 g) is homogenised for 5-10 sec in 20 ml Tris-HCl (30 mM, pH 7.4) using an Ultra-Turrax homogeniser. The suspension is centrifuged at 27,000×g for 15 min and the pellet is washed three times with buffer (centrifuged at 27,000×g for 10 min). The washed pellet is homogenized in 20 ml of buffer and incubated on a water bath (37° C.) for 30 min to remove endogenous GABA and then centrifuged for 10 min at 27,000×g. The pellet is then homogenized in buffer and centrifuged for 10 min at 27,000×g. The final pellet is resuspended in 30 ml buffer and the preparation is frozen and stored at −20° C.
The membrane preparation is thawed and centrifuged at 2° C. for 10 min at 27,000×g. The pellet is washed twice with 20 ml 50 mM Tris-citrate, pH 7.1 using an Ultra-Turrax homogeniser and centrifuged for 10 min at 27,000×g. The final pellet is resuspended in 50 mM Tris-citrate, pH 7.1 (500 ml buffer per g of original tissue), and then used for binding assays. Aliquots of 0.5 ml tissue are added to 25 μl of test solution and 25 μl of ^3H-FNM (1 nM, final concentration), mixed and incubated for 40 min at 2° C. Non-specific binding is determined using Clonazepam (1 μM, final concentration). After incubation the samples are added 5 ml of ice-cold buffer and poured directly onto Whatman GF/C glass fibre filters under suction and immediately washed with 5 ml ice-cold buffer. The amount of radioactivity on the filters is determined by conventional liquid scintillation counting. Specific binding is total binding minus non-specific binding.
25-75% inhibition of specific binding must be obtained, before calculation of an IC50.
The test value will be given as IC50 (the concentration (μM) of the test substance which inhibits the specific binding of ^3H-FNM by 50%).
Co is specific binding in control assays, and […]

Row | Structure (SMILES) | melting point | IC50 [1]
1 | CC(=O)N1CCN(c2cccc(-n3cnc4cc(C(F)(F)F)ccc43)c2)CC1 | 143 to 146 °C | 
2 | COc1ccc2c(c1)ncn2-c1cccc(N2CCN(C(C)=O)CC2)c1 | 157 °C | 
3 | CC(=O)N1CCN(c2cccc(-n3cnc4cc(C)ccc43)c2)CC1 [Compound 23, 1-{4-[3-(5-Methyl-benzoimidazol-1-yl)-phenyl]-piperazin-1-yl}-ethanone] | 145 to 146 °C | 2.6 nM
4 | CC(=O)N1CCN(c2cccc(-n3cnc4cc(C(C)O)ccc43)c2)CC1 (stereo not shown) [Compound 33, 1-(4-{3-[5-(1-Hydroxy-ethyl)-benzoimidazol-1-yl]-phenyl}-piperazin-1-yl)-ethanone] | 126 °C | 9.6 nM
5 | CC(=O)N1CCN(c2cccc(-n3cnc4cc(C(C)C)ccc43)c2)CC1 [Compound 38, 1-{4-[3-(5-Isopropyl-benzoimidazol-1-yl)-phenyl]-piperazin-1-yl}-ethanone] |  | 5 nM
